Laboratory results reported in ChEMBL document CHEMBL3044792, “In vitro antioxidant properties and in vivo lowering blood lipid of Forsythia suspense leaves” (Med Chem Res, 2010).
In brackets after ≈: the same amount, converted by molar mass. Activity calls are given as the source filed them. The calls are words filed in the database; no cut-off is given here.

What was measured:
Type in all cases: functional
[1] = Antioxidant activity assessed as ferric ion reducing activity measured as trolox equivalents by FRAP assay
[2] = Antioxidant activity assessed as ABTS radical scavenging activity
[3] = system: Radical scavenging activity; test: Antioxidant activity assessed as DPPH radical scavenging activity after 30 min
[4] = system: Mus musculus; test: Antioxidant activity in high cholesterol diet fed Mus musculus KM (mouse) assessed as MDA level in liver at 150 mg/kg, ig for 10 days (reference value: 13.6188 +/- 4.2522 nmol/ml); details: route intragastric
[5] = system: Mus musculus; test: Hypolipidemic activity in high cholesterol diet fed Mus musculus KM (mouse) assessed as total cholesterol level at 150 mg/kg, ig for 10 days (reference value: 7.3219 +/- 1.00196 mmol/l); details: route intragastric
[6] = system: Mus musculus; test: Hypolipidemic activity in high cholesterol diet fed Mus musculus KM (mouse) assessed as triglyceride level at 150 mg/kg, ig for 10 days (reference value: 0.9359 +/- 0.2817 mmol/l); details: route intragastric
[7] = system: Mus musculus; test: Hypolipidemic activity in high cholesterol diet fed Mus musculus KM (mouse) assessed as low density lipoprotein cholesterol at 150 mg/kg, ig for 10 days (reference value: 4.2972 +/- 1.1725 mmol/l); details: route intragastric
[8] = system: Mus musculus; test: Hypolipidemic activity in high cholesterol diet fed Mus musculus KM (mouse) assessed as high density lipoprotein cholesterol at 150 mg/kg, ig for 10 days (reference value: 2.6953+/- 0,58099 mmol/l); details: route intragastric
[9] = system: Mus musculus; test: Hypolipidemic activity in high cholesterol diet fed Mus musculus KM (mouse) assessed as high density lipoprotein cholesterol at 70 mg/kg, ig for 10 days (reference value: 1.028 +/- 0.139 mmol/l); details: route intragastric
[10] = system: Mus musculus; test: Hypolipidemic activity in high cholesterol diet fed Mus musculus KM (mouse) assessed as low density lipoprotein cholesterol at 70 mg/kg, ig for 10 days (reference value: 3.386 +/- 0.958 mmol/l); details: route intragastric
[11] = system: Mus musculus; test: Hypolipidemic activity in high cholesterol diet fed Mus musculus KM (mouse) assessed as triglyceride level at 70 mg/kg, ig for 10 days (reference value: 1.391 +/- 0.351 mmol/l); details: route intragastric
[12] = system: Mus musculus; test: Hypolipidemic activity in high cholesterol diet fed Mus musculus KM (mouse) assessed as total cholesterol level at 70 mg/kg, ig for 10 days (reference value: 4.402 +/- 0.8 mmol/l); details: route intragastric
[13] = system: Mus musculus; test: Antioxidant activity in high cholesterol diet fed Mus musculus KM (mouse) assessed as MDA level in liver at 70 mg/kg, ig for 10 days (reference value: 9.95 +/- 0.15 nmol/ml); details: route intragastric

Compound	Activity [1]	IC50 [2]	IC50 [3]	Activity [4] [nmol/mL]	Activity [5] [mmol/L]	Activity [6] [mmol/L]	Activity [7] [mmol/L]	Activity [8] [mmol/L]	Activity [9] [mmol/L]	Activity [10] [mmol/L]	Activity [11] [mmol/L]	Activity [12] [mmol/L]	Activity [13] [nmol/mL]
COc1cc([C@@H]2OC[C@@H]3[C@H]2CO[C@H]3c2ccc(O)c(OC)c2)ccc1O [(+)-PINORESINOL]	2580 µmol/g	3.08 mg/L (≈ 8.59 µM)	8.66 mg/L (≈ 24.2 µM)	–	–	–	–	–	–	–	–	–	–
Cc1cc(C(C)(C)C)c(O)c(C(C)(C)C)c1 [BUTYLATED HYDROXYTOLUENE]	1750 µmol/g	6.04 mg/L (≈ 27.4 µM)	17.21 mg/L (≈ 78.1 µM)	–	–	–	–	–	–	–	–	–	–
COc1cc([C@H]2OC[C@H]3[C@@H]2CO[C@H]3c2ccc(OC)c(OC)c2)ccc1O [PHILLYGENIN]	2440 µmol/g	3.58 mg/L (≈ 9.61 µM)	15.51 mg/L (≈ 41.6 µM)	7.9321	7.2123	0.3249	3.1861	2.4571	–	–	–	–	–
O=c1c(O)c(-c2ccc(O)c(O)c2)oc2cc(O)cc(O)c12 [QUERCETIN]	inactive	–	1.03 mg/L (≈ 3.41 µM)	–	–	–	–	–	–	–	–	–	–
C[C@@H]1O[C@@H](OC[C@H]2O[C@@H](Oc3c(-c4ccc(O)c(O)c4)oc4cc(O)cc(O)c4c3=O)[C@H](O)[C@@H](O)[C@@H]2O)[C@H](O)[C@H](O)[C@H]1O [RUTIN]	inactive	4.65 mg/L (≈ 7.62 µM)	1.83 mg/L (≈ 3 µM)	–	–	–	–	–	1.422	2.639	0.828	3.124	5.1
C[C@H]1[C@H](C)CC[C@]2(C(=O)O)CC[C@]3(C)C(=CC[C@@H]4[C@@]5(C)CC[C@H](O)C(C)(C)[C@@H]5CC[C@]43C)[C@H]12 [URSOLIC ACID]	13.6 µmol/g	Not Active	Not Active	7.326	5.2196	0.4322	1.5655	2.4373	–	–	–	–	–
